± gives the standard deviation of the averaged measurements.

Compound in one assay: Cn1nnc2c(C(N)=O)ncn2c1=O [TEMOZOLOMIDE]
Nature of the assay: surviving fraction relative to DMSO-only wells; higher = less growth inhibition. As to conditions: exposure time: 5 days. The essentials: (§1)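 Viability values are CellTiter-Glo luminescence readings, given as surviving fraction against the median of DMSO-only wells. The readings were taken after 10 minutes at room temperature, following five days of continuous exposure to inhibitors at 0.5, 1, 5, 10, 50, 100, 500 and 1000 nM that began 24 hours after log-phase tumour cell lines were seeded at 250–500 cells per well in 384-well plates. Every line was screened three times and kept only if replicate Pearson r >0.7 and median Z' >0.3.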

Compound in another assay: NS(=O)(=O)OC[C@@H]1C[C@@H](n2ccc3c(N[C@H]4CCc5ccccc54)ncnc32)C[C@@H]1O [MLN-4924]
The assay is described as above. As to conditions: exposure time: 5 days. The essentials:
as §1

Consider SKBR3 BREAST, for which the surviving fraction with TEMOZOLOMIDE (0.5 nM) was determined as 1.1 ± 0.052; with TEMOZOLOMIDE (1 nM) it was 1.11 ± 0.058; in the assay with TEMOZOLOMIDE (5 nM), 1.06 ± 0.082; with TEMOZOLOMIDE (10 nM), 1.06 ± 0.069; in the assay with TEMOZOLOMIDE (50 nM) it was 0.983 ± 0.061; in the assay with TEMOZOLOMIDE (100 nM), 1.07 ± 0.13. For the same test system, the surviving fraction with TEMOZOLOMIDE (500 nM) was found to be 1.13 ± 0.04; in the assay with TEMOZOLOMIDE (1000 nM), 1.07 ± 0.055; with MLN-4924 (0.5 nM), 1.01 ± 0.067; with MLN-4924 (1 nM) it was 1.06 ± 0.12; in the assay with MLN-4924 (5 nM), 1.11 ± 0.083; with MLN-4924 (10 nM), 1.01 ± 0.062. Moreover, the surviving fraction with MLN-4924 (50 nM) turned out to be 0.187 ± 0.015; with MLN-4924 (100 nM), 0.14 ± 0.01; in the assay with MLN-4924 (500 nM) it was 0.159 ± 0.017; in the assay with MLN-4924 (1000 nM), 0.175 ± 0.011.
As for SJSA1 BONE, the surviving fraction amounted to 0.368 ± 0.017 with TEMOZOLOMIDE (0.5 nM); 1.72 ± 0.054 with TEMOZOLOMIDE (1 nM); 1.64 ± 0.088 in the assay with TEMOZOLOMIDE (5 nM); 1.5 ± 0.13 in the assay with TEMOZOLOMIDE (10 nM); 1.69 ± 0.041 in the assay with TEMOZOLOMIDE (50 nM); 1.64 ± 0.077 with TEMOZOLOMIDE (100 nM). In addition, the surviving fraction was 1.66 ± 0.084 with TEMOZOLOMIDE (500 nM); 1.7 ± 0.11 with TEMOZOLOMIDE (1000 nM); 0.247 ± 0.017 with MLN-4924 (0.5 nM); 1.7 ± 0.13 with MLN-4924 (1 nM); 1.68 ± 0.098 with MLN-4924 (5 nM); 1.57 ± 0.046 with MLN-4924 (10 nM). Further, the surviving fraction with MLN-4924 (50 nM) came to 1.64 ± 0.17; with MLN-4924 (100 nM) it was 1.8 ± 0.063; with MLN-4924 (500 nM), 1.62 ± 0.033; in the assay with MLN-4924 (1000 nM) it was 1.73 ± 0.071.
For the test system LNCAP PROSTATE, the surviving fraction with TEMOZOLOMIDE (0.5 nM) stood at 0.966 ± 0.088; with TEMOZOLOMIDE (1 nM), 0.915 ± 0.073; in the assay with TEMOZOLOMIDE (5 nM), 0.985 ± 0.17; with TEMOZOLOMIDE (10 nM) it was 0.8907 ± 0.0074; with TEMOZOLOMIDE (50 nM) it was 0.93 ± 0.034; in the assay with TEMOZOLOMIDE (100 nM), 0.963 ± 0.092. For the same test system, the surviving fraction was 0.897 ± 0.037 in the assay with TEMOZOLOMIDE (500 nM); 0.924 ± 0.083 with TEMOZOLOMIDE (1000 nM); 0.939 ± 0.1 with MLN-4924 (0.5 nM); 1 ± 0.021 with MLN-4924 (1 nM); 0.803 ± 0.092 with MLN-4924 (5 nM); 0.496 ± 0.051 in the assay with MLN-4924 (10 nM). Also, the surviving fraction turned out to be 0.085 ± 0.014 with MLN-4924 (50 nM), 0.026 ± 0.001 with MLN-4924 (100 nM), 0.0227 ± 0.0011 with MLN-4924 (500 nM) and 0.024 with MLN-4924 (1000 nM).
On to DU4475 BREAST, for which the surviving fraction in the assay with TEMOZOLOMIDE (0.5 nM) was 0.877 ± 0.091; in the assay with TEMOZOLOMIDE (1 nM), 0.998 ± 0.053; with TEMOZOLOMIDE (5 nM), 0.973 ± 0.19; with TEMOZOLOMIDE (10 nM) it was 0.878 ± 0.093; with TEMOZOLOMIDE (50 nM) it was 0.851 ± 0.08; in the assay with TEMOZOLOMIDE (100 nM) it was 1.01 ± 0.2. The surviving fraction with TEMOZOLOMIDE (500 nM) is 0.972 ± 0.24; in the assay with TEMOZOLOMIDE (1000 nM), 0.989 ± 0.067; in the assay with MLN-4924 (0.5 nM) it was 0.976 ± 0.098; in the assay with MLN-4924 (1 nM) it was 1.02 ± 0.028; with MLN-4924 (5 nM), 0.894 ± 0.049; with MLN-4924 (10 nM), 0.683 ± 0.11. The surviving fraction with MLN-4924 (50 nM) worked out at 0.033 ± 0.001; in the assay with MLN-4924 (100 nM), 0.0267 ± 0.0042; with MLN-4924 (500 nM) it was 0.0323 ± 0.0011; with MLN-4924 (1000 nM), 0.0333 ± 0.0011.
For the test system SAOS2 BONE, the surviving fraction in the assay with TEMOZOLOMIDE (0.5 nM) is 1.1 ± 0.026; with TEMOZOLOMIDE (1 nM), 1.12 ± 0.099; in the assay with TEMOZOLOMIDE (5 nM) it was 1.25 ± 0.047; with TEMOZOLOMIDE (10 nM), 1.2 ± 0.05; with TEMOZOLOMIDE (50 nM), 1.2 ± 0.13; in the assay with TEMOZOLOMIDE (100 nM), 1.23 ± 0.081. Moreover, the surviving fraction turned out to be 1.16 ± 0.063 in the assay with TEMOZOLOMIDE (500 nM); 1.18 ± 0.14 in the assay with TEMOZOLOMIDE (1000 nM); 1.14 ± 0.096 with MLN-4924 (0.5 nM); 1.1 ± 0.082 with MLN-4924 (1 nM); 1.13 ± 0.057 with MLN-4924 (5 nM); 1.1 ± 0.069 with MLN-4924 (10 nM). Moreover, the surviving fraction with MLN-4924 (50 nM) was 0.313 ± 0.03; in the assay with MLN-4924 (100 nM) it was 0.095 ± 0.0095; with MLN-4924 (500 nM), 0.038 ± 0.0017; in the assay with MLN-4924 (1000 nM), 0.0377 ± 0.0015.
In the case of H23 LUNG, the surviving fraction with TEMOZOLOMIDE (0.5 nM) worked out at 0.987 ± 0.04; in the assay with TEMOZOLOMIDE (1 nM) it was 1.01 ± 0.031; with TEMOZOLOMIDE (5 nM), 1.01 ± 0.053; with TEMOZOLOMIDE (10 nM) it was 1.06 ± 0.044; in the assay with TEMOZOLOMIDE (50 nM), 0.997 ± 0.025; in the assay with TEMOZOLOMIDE (100 nM), 1.01 ± 0.022. The surviving fraction in the assay with TEMOZOLOMIDE (500 nM) came to 0.966 ± 0.066; with TEMOZOLOMIDE (1000 nM), 1.02 ± 0.051; with MLN-4924 (0.5 nM), 0.992 ± 0.05; in the assay with MLN-4924 (1 nM) it was 1.01 ± 0.053; with MLN-4924 (5 nM), 1.07 ± 0.044; with MLN-4924 (10 nM), 1.09 ± 0.049. Also, the surviving fraction with MLN-4924 (50 nM) worked out at 1.18 ± 0.083; with MLN-4924 (100 nM) it was 0.886 ± 0.073; in the assay with MLN-4924 (500 nM), 0.14 ± 0.01; in the assay with MLN-4924 (1000 nM) it was 0.082 ± 0.004.
Take SUM149 BREAST: the surviving fraction in the assay with TEMOZOLOMIDE (0.5 nM) came to 1.06 ± 0.11; with TEMOZOLOMIDE (1 nM), 1.1 ± 0.067; with TEMOZOLOMIDE (5 nM), 1.1 ± 0.029; with TEMOZOLOMIDE (10 nM) it was 1.1 ± 0.12; in the assay with TEMOZOLOMIDE (50 nM), 1.01 ± 0.056; in the assay with TEMOZOLOMIDE (100 nM), 1.16 ± 0.12. Besides, the surviving fraction is 1.1 ± 0.096 with TEMOZOLOMIDE (500 nM); 1.03 ± 0.022 with TEMOZOLOMIDE (1000 nM); 1.08 ± 0.13 in the assay with MLN-4924 (0.5 nM); 1.01 ± 0.16 with MLN-4924 (1 nM); 1.09 ± 0.13 with MLN-4924 (5 nM); 1.056 ± 0.0092 in the assay with MLN-4924 (10 nM). For the same test system, the surviving fraction is 0.86 ± 0.073 in the assay with MLN-4924 (50 nM), 0.555 ± 0.046 in the assay with MLN-4924 (100 nM), 0.0803 ± 0.017 in the assay with MLN-4924 (500 nM) and 0.066 ± 0.003 with MLN-4924 (1000 nM).
On to SUM44 BREAST, for which the surviving fraction with TEMOZOLOMIDE (0.5 nM) was found to be 1.16 ± 0.26; with TEMOZOLOMIDE (1 nM), 1.19 ± 0.22; with TEMOZOLOMIDE (5 nM), 1.24 ± 0.23; with TEMOZOLOMIDE (10 nM) it was 1.33 ± 0.5; in the assay with TEMOZOLOMIDE (50 nM) it was 1.19 ± 0.21; with TEMOZOLOMIDE (100 nM) it was 1.32 ± 0.33. Besides, the surviving fraction with TEMOZOLOMIDE (500 nM) came to 1.3 ± 0.28; with TEMOZOLOMIDE (1000 nM) it was 1.3 ± 0.26; in the assay with MLN-4924 (0.5 nM), 1.22 ± 0.37; with MLN-4924 (1 nM) it was 1.27 ± 0.4; with MLN-4924 (5 nM), 1.27 ± 0.33; with MLN-4924 (10 nM), 1.23 ± 0.36. The surviving fraction in the assay with MLN-4924 (50 nM) amounted to 0.785 ± 0.24; in the assay with MLN-4924 (100 nM), 0.63 ± 0.22; in the assay with MLN-4924 (500 nM), 0.486 ± 0.13; with MLN-4924 (1000 nM), 0.495 ± 0.17.
Regarding CAL72 BONE, the surviving fraction with TEMOZOLOMIDE (0.5 nM) was 1.04 ± 0.056; with TEMOZOLOMIDE (1 nM), 0.996 ± 0.098; in the assay with TEMOZOLOMIDE (5 nM), 1.04 ± 0.083; in the assay with TEMOZOLOMIDE (10 nM) it was 1.02 ± 0.081; in the assay with TEMOZOLOMIDE (50 nM) it was 1.1 ± 0.05; in the assay with TEMOZOLOMIDE (100 nM), 1.09 ± 0.087. For the same test system, the surviving fraction with TEMOZOLOMIDE (500 nM) was found to be 1.076 ± 0.0011; with TEMOZOLOMIDE (1000 nM) it was 1.07 ± 0.094; with MLN-4924 (0.5 nM) it was 1.02 ± 0.11; in the assay with MLN-4924 (1 nM) it was 0.996 ± 0.12; in the assay with MLN-4924 (5 nM) it was 1.02 ± 0.1; with MLN-4924 (10 nM), 1.04 ± 0.068. Further, the surviving fraction with MLN-4924 (50 nM) amounted to 1.1 ± 0.031; with MLN-4924 (100 nM), 0.933 ± 0.085; with MLN-4924 (500 nM), 0.299 ± 0.063; with MLN-4924 (1000 nM), 0.154 ± 0.042.

The record behind these values is the supplement of paper PMC6045584.
